Assay [1] has as its system Jurkat. Description: Inhibition of etoposide-induced apoptosis in human Jurkat T cells at 10 uM. The class given is functional, cell-based.
The test system of assay [2] is Jurkat. Description: Inhibition of etoposide-induced apoptosis in human Jurkat T cells at 1 uM. The assay is classed as functional, cell-based.

The source made the active and inactive calls. No cut-off for these calls is given here.

On to `Cc1cccc(C)c1C(=O)OCC(=O)[C@H](CC(=O)O)NC(=O)[C@H](CCCCNc1ccc([N+](=O)[O-])cc1[N+](=O)[O-])NC(=O)[C@H](CCC(=O)O)NC(=O)OCc1ccccc1`, for which the outcome in assay [1] and in assay [2] was Active.

The values are drawn from ChEMBL document CHEMBL1138864, “Synthesis of novel caspase inhibitors for characterization of the active caspase proteome in vitro and in vivo” (J Med Chem, 2006).
